Measured values published in patent US20260262643A1, “HERBICIDAL BENZOXAZINES” (FMC CORPORATION, priority 2022, published 2026).

Tests used:
green foxtail [1] = test: Test C preemergence; format: in vivo, Setaria viridis
Summary of the method: (§1)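 Soil-applied (pre) and foliar (post, 1–2 leaf, 2–10 cm) sprays; surfactant-containing non-phytotoxic solvent vehicle; loam/sand substrate. Readout: visual % control at 10 d, greenhouse, versus untreated.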

wheat [2] = test: Test C preemergence; format: in vivo, Triticum aestivum
Summary of the method: as §1

pigweed, palmer [3] = test: Test C postemergence; format: in vivo, Amaranthus palmeri; settings: 10 days, 0 to 100 scale (0 no effect, 100 complete control)
Summary of the method: as §1

green foxtail [4] = test: Test C postemergence; format: in vivo, Setaria viridis; settings: 10 days, 0 to 100 scale (0 no effect, 100 complete control)
Summary of the method: as §1

ducksalad = test: Test D flooded paddy test; format: in vivo, Heteranthera limosa; settings: 250 g ai/ha, applied to paddy water, visual rating after 13 to 14 days, scale 0 to 100 (0 no effect, 100 complete control)
Summary of the method: (§2)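 Compounds go straight into paddy water over 2-leaf plants in pots flooded to 3 cm. Greenhouse holding lasts 13 to 14 days. Injury is scored by eye against controls from 0 (none) to 100 (complete control).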

barnyardgrass [5] = test: Test C postemergence; format: in vivo, Echinochloa crusgalli; settings: 10 days, 0 to 100 scale (0 no effect, 100 complete control)
Summary of the method: as §1

sedge, umbrella = test: Test D flooded paddy test; format: in vivo, Cyperus difformis; settings: 250 g ai/ha, applied to paddy water, visual rating after 13 to 14 days, scale 0 to 100 (0 no effect, 100 complete control)
Summary of the method: as §2

wheat [6] = test: Test C postemergence; format: in vivo, Triticum aestivum; settings: 10 days, 0 to 100 scale (0 no effect, 100 complete control)
Summary of the method: as §1

soybean [7] = test: Test C preemergence; format: in vivo, Glycine max
Summary of the method: as §1

soybean [8] = test: Test C postemergence; format: in vivo, Glycine max; settings: 10 days, 0 to 100 scale (0 no effect, 100 complete control)
Summary of the method: as §1

rice = test: Test D flooded paddy test; format: in vivo, Oryza sativa; settings: 250 g ai/ha, applied to paddy water, visual rating after 13 to 14 days, scale 0 to 100 (0 no effect, 100 complete control)
Summary of the method: as §2

kochia [9] = test: Test C preemergence; format: in vivo, Bassia scoparia
Summary of the method: as §1

barnyardgrass [10] = test: Test D flooded paddy test; format: in vivo, Echinochloa crus-galli; settings: 250 g ai/ha, applied to paddy water, visual rating after 13 to 14 days, scale 0 to 100 (0 no effect, 100 complete control)
Summary of the method: as §2

ragweed [11] = test: Test C postemergence; format: in vivo, Ambrosia artemisiifolia; settings: 10 days, 0 to 100 scale (0 no effect, 100 complete control)
Summary of the method: as §1

pigweed, palmer [12] = test: Test C preemergence; format: in vivo, Amaranthus palmeri
Summary of the method: as §1

blackgrass [13] = test: Test C preemergence; format: in vivo, Alopecurus myosuroides
Summary of the method: as §1

ryegrass, Italian [14] = test: Test C postemergence; format: in vivo, Lolium multiflorum; settings: 10 days, 0 to 100 scale (0 no effect, 100 complete control)
Summary of the method: as §1

corn [15] = test: Test C preemergence; format: in vivo, Zea mays
Summary of the method: as §1

ragweed [16] = test: Test C preemergence; format: in vivo, Ambrosia artemisiifolia
Summary of the method: as §1

barnyardgrass [17] = test: Test C preemergence; format: in vivo, Echinochloa crusgalli
Summary of the method: as §1

oat, wild [18] = test: Test C preemergence; format: in vivo, Avena fatua
Summary of the method: as §1

corn [19] = test: Test C postemergence; format: in vivo, Zea mays; settings: 10 days, 0 to 100 scale (0 no effect, 100 complete control)
Summary of the method: as §1

oat, wild [20] = test: Test C postemergence; format: in vivo, Avena fatua; settings: 10 days, 0 to 100 scale (0 no effect, 100 complete control)
Summary of the method: as §1

horseweed = test: Test C postemergence; format: in vivo, Erigeron canadensis; settings: 10 days, 0 to 100 scale (0 no effect, 100 complete control)
Summary of the method: as §1

blackgrass [21] = test: Test C postemergence; format: in vivo, Alopecurus myosuroides; settings: 10 days, 0 to 100 scale (0 no effect, 100 complete control)
Summary of the method: as §1

kochia [22] = test: Test C postemergence; format: in vivo, Bassia scoparia; settings: 10 days, 0 to 100 scale (0 no effect, 100 complete control)
Summary of the method: as §1

ryegrass, Italian [23] = test: Test C preemergence; format: in vivo, Lolium multiflorum
Summary of the method: as §1

galium = test: Test C postemergence; format: in vivo, Galium aparine; settings: 10 days, 0 to 100 scale (0 no effect, 100 complete control)
Summary of the method: as §1

[24] = 500 g ai/ha, preemergence, 0 to 100 scale (0 no effect, 100 complete control)
[25] = Preemergence, 125 g ai/ha, 0 to 100 scale, 0 no effect, 100 complete control

Cc1ccc(-n2cnc(C(C)(C)C)n2)cc1C(=O)N1CC(C(F)(F)F)Oc2c(Cl)cccc21 (stereo not shown) [Compound 350]
Foxtail, Green plant response rating (green foxtail [1]; [24]): 100 | Plant response rating, Foxtail, Green (green foxtail [1]; [25]): 100 | Wheat plant response rating (wheat [2]; [24]): 30 | Plant response rating, Wheat (wheat [2]; [25]): 30 | Plant response rating, Pigweed, Palmer (pigweed, palmer [3]; 500 g ai/ha, postemergence): 100 | Plant response rating, Pigweed, Palmer (pigweed, palmer [3]; Postemergence, 125 g ai/ha): 100 | Plant response rating, Foxtail, Green (green foxtail [4]; 500 g ai/ha, postemergence): 80 | Plant response rating, Foxtail, Green (green foxtail [4]; Postemergence, 125 g ai/ha): 30 | Plant response rating, Ducksalad (Flood) (ducksalad): 0 | Plant response rating, Barnyardgrass (barnyardgrass [5]; 500 g ai/ha, postemergence): 30 | Plant response rating, Barnyardgrass (barnyardgrass [5]; Postemergence, 125 g ai/ha): 10 | Plant response rating, Sedge, Umbrella (Flood) (sedge, umbrella): 0 | Plant response rating, Wheat (wheat [6]; 500 g ai/ha, postemergence): 10 | Plant response rating, Wheat (wheat [6]; Postemergence, 125 g ai/ha): 10 | Soybean plant response rating (soybean [7]; [24]): 90 | Plant response rating, Soybean (soybean [7]; [25]): 90 | Plant response rating, Soybean (soybean [8]; 500 g ai/ha, postemergence): 100 | Plant response rating, Soybean (soybean [8]; Postemergence, 125 g ai/ha): 100 | Plant response rating, Rice (Flood) (rice): 0 | Kochia plant response rating (kochia [9]; [24]): 80 | Plant response rating, Kochia (kochia [9]; [25]): 50 | Plant response rating, Barnyardgrass (Flood) (barnyardgrass [10]): 0 | Plant response rating, Ragweed (ragweed [11]; 500 g ai/ha, postemergence): 50 | Plant response rating, Ragweed (ragweed [11]; Postemergence, 125 g ai/ha): 30 | Pigweed, Palmer plant response rating (pigweed, palmer [12]; [24]): 100 | Plant response rating, Pigweed, Palmer (pigweed, palmer [12]; [25]): 100 | Blackgrass plant response rating (blackgrass [13]; [24]): 50 | Plant response rating, Blackgrass (blackgrass [13]; [25]): 20 | Plant response rating, Ryegrass, Italian (ryegrass, Italian [14]; 500 g ai/ha, postemergence): 30 | Plant response rating, Ryegrass, Italian (ryegrass, Italian [14]; Postemergence, 125 g ai/ha): 10 | Corn plant response rating (corn [15]; [24]): 0 | Plant response rating, Corn (corn [15]; [25]): 0 | Ragweed plant response rating (ragweed [16]; [24]): 60 | Plant response rating, Ragweed (ragweed [16]; [25]): 20 | Barnyardgrass plant response rating (barnyardgrass [17]; [24]): 100 | Plant response rating, Barnyardgrass (barnyardgrass [17]; [25]): 50 | Oat, Wild plant response rating (oat, wild [18]; [24]): 50 | Plant response rating, Oat, Wild (oat, wild [18]; [25]): 30 | Plant response rating, Corn (corn [19]; 500 g ai/ha, postemergence): 20 | Plant response rating, Corn (corn [19]; Postemergence, 125 g ai/ha): 10 | Plant response rating, Oat, Wild (oat, wild [20]; 500 g ai/ha, postemergence): 10 | Plant response rating, Oat, Wild (oat, wild [20]; Postemergence, 125 g ai/ha): 0 | Plant response rating, Horseweed (horseweed; 500 g ai/ha, postemergence): 40 | Plant response rating, Horseweed (horseweed; Postemergence, 125 g ai/ha): 40 | Plant response rating, Blackgrass (blackgrass [21]; 500 g ai/ha, postemergence): 20 | Plant response rating, Blackgrass (blackgrass [21]; Postemergence, 125 g ai/ha): 10 | Plant response rating, Kochia (kochia [22]; 500 g ai/ha, postemergence): 90 | Plant response rating, Kochia (kochia [22]; Postemergence, 125 g ai/ha): 70 | Ryegrass, Italian plant response rating (ryegrass, Italian [23]; [24]): 100 | Plant response rating, Ryegrass, Italian (ryegrass, Italian [23]; [25]): 100 | Plant response rating, Galium (galium; 500 g ai/ha, postemergence): 100 | Plant response rating, Galium (galium; Postemergence, 125 g ai/ha): 80
